The values that follow come from publication PMC9554870, “Mesoporous Silica Nanoparticles Improve Oral Delivery of Antitubercular Bicyclic Nitroimidazoles” (ACS Biomaterials Science & Engineering, 2021).

SMILES strings stand for the structures. Converted amounts (≈) assume the structure as drawn.

Data set [1] is described as follows: Aqueous (saturated water) solubility by LC-UV. The settings on record: deionized water, 37 °C, encapsulated samples 10% w/w, n = 3. It counts as physicochemical. As for the experimental part: The solubility of pretomanid and MCC7433 was measured before and after loading into nanoparticles by using Shimadzu LCMS-2020 (Kyoto, Japan) with a variable-wavelength UV–visible detector. Briefly, 0.5 mg of compound equivalent particles (or 5 mg of 10 wt % compound loaded nanoparticles) were dispersed in 750 μL of deionized water. Samples were incubated at 37 °C on a rotator for 24 and 48 h. Samples were then centrifuged at 12 000 rpm for 20 min. The supernatant was collected and centrifuged for another round at 12 000 rpm, 20 min before being analyzed by LC-UV. The mobile phase was 0.05% formic acid in water (solvent A) and 0.05% formic acid in acetonitrile (solvent B). LC-MS condition: column Zorbax Eclipse XDB-Phenyl, 3.0 × 100 mm, 3.5 μm; column temperature: 40 °C; flow: 1 mL/min; injection volume: 5 μL; gradient timetable: 0.00 min, 5% B; 0.50 min, 5% B; 3.00 min, 100% B; 4.2 min, 100% B; 5.00 min, 5% B.

Data set [2] concerns M. tuberculosis H37Rv strain. The data set is described as follows: M. tuberculosis H37Rv minimum inhibition assay (resazurin reduction microplate assay). The format is cell-based. The settings on record: Mycobacterium tuberculosis, lowest concentration with >90% inhibition of growth, free compounds predissolved in DMSO, nanoformulations dispersed in assay media, n = 4–6, read-out: MIC90%Inhib H37Rv. (Resazurin is reduced to fluorescent resorufin, in cell work by metabolically active cells.)

A further data set in a line: in vivo. To be noted: male, CD-1, mouse, po, 20 mg/kg.
On the set-up of data set [3]: method as in PMID 30562958. The settings on record: vorinostat encapsulated within pristine and functionalized MCM-41; cited from earlier work.

A word on the solubility: it is how much of the substance goes into solution per volume. A low value points to little dissolved substance. In general, MIC90 refers to an inhibitory concentration at the 90% level, which refers to growth in some studies and to a panel of isolates in others. What is called Tmax is the time from dosing to the highest level. The term half-life denotes the time needed for the level to fall by half in the phase considered. A higher half-life goes with slow loss. In turn, `O=c1c2nc([N+](=O)[O-])cn2ccn1Cc1ccc(OC(F)(F)F)cc1` [MCC7433] registered a solubility at 24 h in data set [1] of 0.33 µg/mL (≈ 0.932 µM). In data set [2], the MIC90 lay in the range of 0.25 to 0.5 µg/mL (≈ 0.706 to 1.41 µM). Further, in the data set “in vivo”, the Tmax amounted to 5.33 h and the half-life is 3.21 h.
With `O=C(CCCCCCC(=O)Nc1ccccc1)NO` [vorinostat], in data set [3], the “fold improvement of solubility compared to the free drug” value is reported as 2.6–4.3 fold.
As for `NNC(=O)c1ccncc1` [isoniazid], the MIC90 in data set [2] came to 0.04 µg/mL (≈ 0.292 µM).
The molecule `O=[N+]([O-])c1cn2c(n1)OC[C@@H](OCc1ccc(OC(F)(F)F)cc1)C2` [pretomanid] registered a solubility at 24 h in data set [1] of 15.5 µg/mL (≈ 43.1 µM). Moreover, the MIC90 in data set [2] was found to be 0.25 µg/mL (≈ 0.696 µM).
